Measured values taken from patent US20250084041A1, “ANTIMICROBIAL COMPOUNDS AND METHODS” (Curza Global, LLC, priority 2021, published 2025).
Counter-ions that a name gives are not always drawn. Like-named read-outs stand apart in the source and are kept apart here.

Experiments:
[1] = target: Rabbit Reticulocyte Lysate; assay: Rabbit Reticulocyte Lysate: inhibition of eukaryotic protein synthesis (luciferase); type: biochemical; conditions: 30° C. 90 minutes, read-out: Retic. IC50
Procedure: Inhibition of eukaryotic protein synthesis was determined using the Rabbit Reticulocyte Lysate System, Nuclease-Treated from Promega (catalog #L-4960) with slight modifications to the manufacturer's protocol. Compounds were serial diluted in 0.5 mL microcentrifuge tubes by mixing and transferring 50 μL from the highest concentration to 50 μL of water, mixing and transferring 50 μL of this 2-fold dilution to 50 μL of water. This mixing and transferring was repeated so that there are a total of 8 tubes with serial dilutions of compound at 10× the desired screening concentration that are ultimately diluted to 1× by the addition of rabbit reticulocyte luciferase synthesis mixture. Serial dilutions of compounds were added ([…]) to wells in a black round bottom 96-well plate. Water (2.5 μL) was used as a “no inhibitor” control in 4 wells/plate. No RNA control reaction mixture ([…]; see below) was used as a control in 4 wells/plate for background luminescence. Rabbit reticulocyte luciferase synthesis mixture (22.5 μL; see below) was added to wells with compounds or water mixture and incubated at 30° C. for 90 minutes. Luciferase assay reagent (25 μL) was added with luminescence measured using a BioTek Synergy HTX plate reader. % Inhibition was determined relative to no inhibitor controls.
• 1,000 μL rabbit reticulocyte lysate • 5.7 μL Luciferase Control RNA (1 μg/μL) • 26 μL complete amino acid mixture • 395 μL water
• 70 μL rabbit reticulocyte lysate • 2 μL complete amino acid mixture • 28 μL water

E. coli S30 extract = assay: E. coli S30 extract: inhibition of bacterial protein synthesis (luciferase); type: biochemical; conditions: 37° C. 1 hour
Procedure: E. coli S30 extract: Inhibition of bacterial protein synthesis was determined using the E. coli S30 Extract System for Circular DNA (Promega catalog #L-2010) and Luciferase Assay Reagent (Promega catalog #E1500) with slight modifications to a published protocol. Fyfe, C., Sutcliffe, J. A. and Grossman, T. H. (2012) “Development and characterization of a Pseudomonas aeruginosa in vitro coupled transcription-translation assay system for evaluation of translation inhibitors” J. Microbiol. Methods 90(3), 256-261.
Compounds were serial diluted in 0.5 mL microcentrifuge tubes by mixing and transferring 50 μL from the highest concentration to 50 μL of water, mixing and transferring 50 μL of this 2-fold dilution to 50 μL of water. This mixing and transferring was repeated so that there are a total of 8 tubes with serial dilutions of compound at 10× the desired screening concentration that are ultimately diluted to 1× by the addition of S30 luciferase synthesis mixture. Serial dilutions of compounds were added (2 μL) to wells in a black round bottom 96-well plate. Water (2 μL) was used as a “no inhibitor” control in 4 wells/plate. No DNA control reaction mixture (20 μL; see below) was used as a control in 4 wells/plate for background luminescence. S30 luciferase synthesis mixture (18 μL; see below) was added to wells with compounds or water mixture and incubated at 37° C. for 1 hour. Reactions were stopped by transferring to 4° C. refrigerator for 5 minutes then 25 μL of luciferase activity mix was added. Luminescence was measured using a BioTek Synergy HTX plate reader. % Inhibition was determined relative to no inhibitor controls.
• 445 μL S30 extract, circular • 712 μL S30 Premix without amino acids • 4.45 μL pBESTluc™ DNA (1 μg/μL) • 78 μL complete amino acid mixture • 267 μL water
• 20 μL S30 extract, circular • 32 μL S30 Premix without amino acids • 7 μL complete amino acid mixture • 21 μL water

P. aeruginosa (Pa) = assay: Broth microdilution MIC, P. aeruginosa; type: cell-based; conditions: Pseudomonas aeruginosa, read-out: Pa + bicarb 25 (MIC)
Procedure: (§1) A certified BSL-2 laboratory was used for testing. Compounds were evaluated using the broth microdilution minimum inhibitory concentration (MIC) and minimum bactericidal concentration (MBC) assays defined by Clinical and Laboratory Standards Institute (CLSI) in the M26-A guideline against S. aureus (Sa), E. coli (Ec), K. pneumoniae (Kp), A. baumannii (Ab), E. faecalis (Ef) and P. aeruginosa (Pa).
(§2) MICs were determined using the Clinical Laboratory and Standards Institute (CLSI) Broth Microdilution Method with slight modification. Clinical and Laboratory Standards Institute (2012). “Methods for dilution antimicrobial susceptibility tests for bacteria that grow aerobically; approved standard, 9th ed. M07-A9. Clinical and Laboratory Standards Institute, Wayne, PA.” Serial two-fold dilutions of compounds are prepared in sterile clear round-bottom 96-well plates.
(§3) To prepare microdilution trays, two-fold dilutions of antimicrobial agent are prepared in growth medium: Cation-Adjusted Mueller-Hinton Broth (CAMHB), or CAMHB supplemented with sodium bicarbonate (25 mM final concentration prepared from a 1.0 M stock solution) or CAMHB supplemented with heat inactivated human serum (Fisher Cat. #BP2657100) 0-50% by adding 200 μL of the highest concentration to be tested (64 μg/mL, for example) in row A, mixing and transferring 100 μL from row A to 100 μL growth medium in row B, then repeating the mixing and transferring through row H of the 96-well plate, discarding the excess 100 μL remaining. This slight modification to the CLSI protocol enables evaluation of MICs for 3 compounds per plate in triplicate, albeit with only 8 compound dilutions (CLSI protocol enables 2 compounds in triplicate with 10 dilutions). Bacterial suspensions are added to a final concentration of 5×10^4 CFU/well by adding 5 μL of a 1:10 dilution of a 0.5 McFarland suspension (1×10^8 CFU/mL) for each bacterium evaluated. Bacterial suspensions were prepared using the growth method described by CLSI. Well-isolated colonies (3-5 from an agar plate) were selected using a sterile loop and used to inoculate a tube containing 4 mL of CAMHB. The cultures are incubated at 35±2° C. until it achieves or exceeds the turbidity of the 0.5 McFarland standard, determined by measuring A600nm (usually two to six hours). When growth exceeds a 0.5 McFarland standard, the turbidity is adjusted with broth to be equivalent to a 0.5 McFarland standard.

E. faecalis (Ef) = assay: Broth microdilution MIC, E. faecalis; type: cell-based; conditions: Enterococcus faecalis, read-out: Ef + bicarb 25 (MIC)
Procedure: as §1, §2, §3

E. coli (Ec) = assay: Broth microdilution MIC, E. coli; type: cell-based; conditions: Escherichia coli, read-out: E. coli + bicarb 25 (MIC)
Procedure: as §1, §2, §3

S. aureus (Sa) = assay: Broth microdilution MIC, S. aureus; type: cell-based; conditions: Staphylococcus aureus, read-out: Sa + bicarb 25 (MIC)
Procedure: as §1, §2, §3

A. baumannii (Ab) = assay: Broth microdilution MIC, A. baumannii; type: cell-based; conditions: Acinetobacter baumannii, read-out: Ab + bicarb 25 (MIC)
Procedure: as §1, §2, §3

Compound: CC(C)(N)C(=O)N1CCN(C(=O)Nc2ccn(C3=CCC(CN4CCCC(N)CC4)CC3)c(=O)n2)CC1 (single isomer, unassigned) [Compound 41, 4-(2-Amino-2-methylpropanoyl)-N-(1-(4-((4-aminoazepan-1-yl)methyl)cyclohex-1-en-1-yl)-2-oxo-1,2-dihydropyrimidin-4-yl)piperazine-1-carboxamide hydrochloride salt]
- IC50 [1]: ≥ 1000 nM
- IC50 (E. coli S30 extract): < 500 nM
- MIC (P. aeruginosa (Pa)): > 32 µg/mL
- MIC (E. faecalis (Ef)): < 8 µg/mL
- MIC (E. coli (Ec)): < 8 µg/mL
- MIC (S. aureus (Sa)): < 8 µg/mL
- MIC (A. baumannii (Ab)): > 32 µg/mL

Compound: CC(C)(N)C(=O)N1CCN(C(=O)Nc2ccn(C3=CCC(CN4CC[C@H](CN)C4)CC3)c(=O)n2)CC1 (stereo in doubt) [Compound 23, (S)-4-(2-Amino-2-methylpropanoyl)-N-(1-(4-((3-(aminomethyl)pyrrolidin-1-yl)methyl)cyclohex-1-en-1-yl)-2-oxo-1,2-dihydropyrimidin-4-yl)piperazine-1-carboxamide hydrochloride salt]
- IC50 [1]: ≥ 1000 nM
- IC50 (E. coli S30 extract): < 500 nM
- MIC (P. aeruginosa (Pa)): > 32 µg/mL
- MIC (E. faecalis (Ef)): 8 to 32 µg/mL
- MIC (E. coli (Ec)): < 8 µg/mL
- MIC (S. aureus (Sa)): < 8 µg/mL
- MIC (A. baumannii (Ab)): > 32 µg/mL

Compound: CC(C)(N)C(=O)N1CCN(C(=O)Nc2ccn(C3=CCC(CN4CC[C@@H](CN)C4)CC3)c(=O)n2)CC1 (stereo in doubt) [Compound 24, (R)-4-(2-Amino-2-methylpropanoyl)-N-(1-(4-((3-(aminomethyl)pyrrolidin-1-yl)methyl)cyclohex-1-en-1-yl)-2-oxo-1,2-dihydropyrimidin-4-yl)piperazine-1-carboxamide hydrochloride salt]
- IC50 [1]: ≥ 1000 nM
- IC50 (E. coli S30 extract): < 500 nM
- MIC (P. aeruginosa (Pa)): > 32 µg/mL
- MIC (E. faecalis (Ef)): > 32 µg/mL
- MIC (E. coli (Ec)): < 8 µg/mL
- MIC (S. aureus (Sa)): < 8 µg/mL
- MIC (A. baumannii (Ab)): > 32 µg/mL

Compound: CC(C)(N)C(=O)N1CCN(C(=O)Nc2ccn(C3CCC(CN(CCF)C4CCC(N)CC4)CC3)c(=O)n2)CC1 (stereo in doubt) [Compound 48, trans-cis-4-(2-Amino-2-methylpropanoyl)-N-(1-(4-(((4-aminocyclohexyl)(2-fluoroethyl)amino)methyl)cyclohexyl)-2-oxo-1,2-dihydropyrimidin-4-yl)piperazine-1-carboxamide hydrochloride salt]
- IC50 [1]: ≥ 1000 nM
- IC50 (E. coli S30 extract): < 500 nM
- MIC (P. aeruginosa (Pa)): > 32 µg/mL
- MIC (E. faecalis (Ef)): 8 to 32 µg/mL
- MIC (E. coli (Ec)): 8 to 32 µg/mL
- MIC (S. aureus (Sa)): 8 to 32 µg/mL
- MIC (A. baumannii (Ab)): > 32 µg/mL

Compound: CC(C)(N)C(=O)N1CCN(C(=O)Nc2ccn(C3=CCC(CN[C@H]4CC[C@H](N)CC4)CC3)c(=O)n2)CC1 (stereo partly drawn) [Compound 1, 4-(2-Amino-2-methylpropanoyl)-N-(1-(4-(((trans-4-aminocyclohexyl)amino)methyl)cyclohex-1-en-1-yl)-2-oxo-1,2-dihydropyrimidin-4-yl)piperazine-1-carboxamide hydrochloride salt]
- IC50 [1]: ≥ 1000 nM
- IC50 (E. coli S30 extract): < 500 nM
- MIC (P. aeruginosa (Pa)): > 32 µg/mL
- MIC (E. faecalis (Ef)): 8 to 32 µg/mL
- MIC (E. coli (Ec)): < 8 µg/mL
- MIC (S. aureus (Sa)): < 8 µg/mL
- MIC (A. baumannii (Ab)): > 32 µg/mL

Compound: CC(C)(N)C(=O)N1CCN(C(=O)Nc2ccn(C3=CCC(CN4C[C@@H]5[C@@H](CN)[C@@H]5C4)CC3)c(=O)n2)CC1 (stereo partly drawn) [Compound 2, 4-(2-Amino-2-methylpropanoyl)-N-(1-(4-((exo-6-(aminomethyl)-3-azabicyclo[3.1.0]hexan-3-yl)methyl)cyclohex-1-en-1-yl)-2-oxo-1,2-dihydropyrimidin-4-yl)piperazine-1-carboxamide hydrochloride salt]
- IC50 [1]: ≥ 1000 nM
- IC50 (E. coli S30 extract): < 500 nM
- MIC (P. aeruginosa (Pa); P. aeruginosa, CAMHB supplemented with sodium bicarbonate 25 mM): > 32 µg/mL
- MIC (E. faecalis (Ef); E. faecalis, CAMHB supplemented with sodium bicarbonate 25 mM): < 8 µg/mL
- MIC (E. coli (Ec); E. coli, CAMHB supplemented with sodium bicarbonate 25 mM): < 8 µg/mL
- MIC (S. aureus (Sa); S. aureus, CAMHB supplemented with sodium bicarbonate 25 mM): < 8 µg/mL
- MIC (A. baumannii (Ab); A. baumannii, CAMHB supplemented with sodium bicarbonate 25 mM): > 32 µg/mL

Compound: CC(C)(N)C(=O)N1CCN(C(=O)Nc2ccn(C3=CCC(CN[C@H]4CC[C@H](N)C4)CC3)c(=O)n2)CC1 (stereo partly drawn) [Compound 3, 4-(2-Amino-2-methylpropanoyl)-N-(1-(4-((((1S,3S)-3-aminocyclopentyl)amino)methyl)cyclohex-1-en-1-yl)-2-oxo-1,2-dihydropyrimidin-4-yl)piperazine-1-carboxamide hydrochloride salt]
- IC50 [1]: ≥ 1000 nM
- IC50 (E. coli S30 extract): < 500 nM
- MIC (P. aeruginosa (Pa)): > 32 µg/mL
- MIC (E. faecalis (Ef)): > 32 µg/mL
- MIC (E. coli (Ec)): < 8 µg/mL
- MIC (S. aureus (Sa)): < 8 µg/mL
- MIC (A. baumannii (Ab)): > 32 µg/mL

Compound: CC(C)(N)C(=O)N1CCN(C(=O)Nc2ccn(C3=CCC(CN4CCCC(N)CC4)CC3)c(=O)n2)CC1 (centres unmarked) [Compound 4, 4-(2-Amino-2-methylpropanoyl)-N-(1-(4-((4-aminoazepan-1-yl)methyl)cyclohex-1-en-1-yl)-2-oxo-1,2-dihydropyrimidin-4-yl)piperazine-1-carboxamide hydrochloride salt]
- IC50 [1]: ≥ 1000 nM
- IC50 (E. coli S30 extract): < 500 nM
- MIC (P. aeruginosa (Pa)): > 32 µg/mL
- MIC (E. faecalis (Ef)): < 8 µg/mL
- MIC (E. coli (Ec)): < 8 µg/mL
- MIC (S. aureus (Sa)): < 8 µg/mL
- MIC (A. baumannii (Ab)): > 32 µg/mL
